# According to paper PMC12040169 (PLOS Biology, 2025):
# Assay: in vitro
# Conditions: human, hela cells, % viability
row,Compound,"viability at 28.5 h, 10 µM"
1,O=C(NCc1ccc(Cl)cc1)c1c(O)c2cc(NS(=O)(=O)c3ccccc3)ccc2[nH]c1=O [CBK017589],94.4%
2,CC(C)(C)c1ccc2c(c1)C(CCCCN1CCCC1)(c1ccccc1)C(=O)O2 (stereo not shown) [CBK017654C],102%
3,NC(=O)c1ccc2[nH]c(-c3cscn3)nc2c1 [CBK017800],86%
4,COc1ccc2c(c1Br)C=C(n1ccnc1)CC2 [CBK017808],76.9%
5,Oc1cccc2ccc(-n3ccnc3)nc12 [CBK017812],79.3%
6,Cc1ccc(N)c(C(=O)CCC(=O)O)c1 [CBK017815C],92.1%
7,COc1ccc2[nH]cc(/C=C3\C(=O)Nc4ncccc43)c2c1 [CBK017826],88.3%
8,C[C@@H]1CC(=O)CCC1NC(=O)c1ccccc1 (stereo partly shown) [CBK017832],88.4%
9,CN(C)c1ccc(C(=O)N2CC(=O)Nc3ccccc32)cc1 [CBK017839],89.2%
10,COC(=O)C[C@@H](C)NC(=O)[C@](OC)(c1ccccc1)C(F)(F)F [CBK017864],98.6%
11,CCCN(CCC)CCc1cccc2c1CCN2C(=O)c1cc2ccccc2s1 [CBK017871C],93.2%
12,COC(=O)c1ccc2cccnc2c1O [CBK017876],90.9%
13,O=C(Nc1ccc(Cl)cc1)N1CCN(CCCCc2ccc(F)cc2)CC1 [CBK017951C],111%
14,NC(=O)c1ccc(Nc2cc(N)ncn2)cc1 [CBK017969],94.1%
15,Cc1cc(C)c2nc(O)nc(O)c2c1 [CBK017986],94.4%
16,CC(=S)NCC1CC(c2ccc(N3CC[S+]([O-])CC3)c(F)c2)=NO1 (stereo not shown) [CBK017992],110%
17,O=C(NCc1ccc(Cl)cc1)c1cnc2ccc(CN3CCSCC3)cc2c1O [CBK018010],97.9%
18,Fc1cc2c3c(c1)c1c(n3CCO2)CCNCC1 [CBK018018C],102%
19,Cn1cnnc1SCc1nc(N)nc(Nc2ccccc2)n1 [CBK018022],106%
20,CCN(CC)CCNC(=O)c1c(C)oc2cc(Br)c(OC)cc12 [CBK018064],87.3%
21,CC(C)(C)C(=O)Nc1cccc(OC(F)(F)C(F)Cl)c1 (stereo not shown) [CBK018091],95%
22,Cc1nc2ccccc2[nH]/c1=N/O [CBK018103],104%
23,CCOC(=O)c1nnc(-c2cccs2)nc1NC1CCCCC1 [CBK018110],86.8%
24,CC(C)Oc1cc(NC(=O)CS(=O)(=O)CC(=O)N(C)C)c(Cl)cc1Cl [CBK018112],113%
25,CC12CCC(C(=O)Nc3ccccc3)(OC1=O)C2(C)C (stereo not shown) [CBK018129],96.4%

row,Compound,"viability at 28.5 h, 10 µM"
1,COCc1cc(C)nc2sc(C(N)=O)c(N)c12 [CBK018149],93%
2,O=c1[nH]c2cc3nn[nH]c3cc2[nH]1 [CBK018154],99.9%
3,Sc1nnc2sc3ccccc3n12 [CBK018156],103%
4,Cc1ccc(-c2ccc(/C=C/c3cc(C(F)(F)F)nc(=O)[nH]3)o2)cc1Cl [CBK018169],103%
5,COc1ccc2cc(/C=N/NC(=O)CN3CCCCC3)c(Cl)nc2c1 [CBK018181],95.3%
6,Cc1cc(C)c2nn[nH]c2c1CN1CCCC1 [CBK018196],100%
7,O=C(NCCCO)c1c(O)c2ccccc2[nH]c1=O [CBK018215],71.7%
8,Cc1sc2nc(NCCO)nc(O)c2c1C [CBK018257],86.9%
9,CCOC(=O)NC(=S)NCCCn1ccnc1 [CBK018272],112%
10,CSc1nc(N)c2c3c(sc2n1)CN(C)CC3 [CBK018303],122%
11,O=C(OCc1nc2cc3ccccc3cc2[nH]1)C1CCCCC1 [CBK018307],94%
12,Cc1c2cn[nH]c(=O)c2c(C)n1-c1ccccc1 [CBK018349],98.3%
13,CCOC(=O)c1ccc(NC(=S)NCCN(CC)CC)cc1 [CBK018358],104%
14,Cc1cc2c3c(c1)c1c(n3CCC2)CCNCC1 [CBK018380C],96.9%
15,Cc1ncccc1Oc1ccc(NC(=O)N2CCc3ccccc3CC2)cn1 [CBK018383],96.6%
16,COc1ccccc1N/C(=N\OCc1ccc(Cl)cc1Cl)c1nonc1N [CBK018391],91%
17,O=S1(=O)C=C(c2ccc(Cl)cc2)S(=O)(=O)CC1 [CBK018403],86.3%
18,CCOC(=O)c1cnc2ccc(C(CCOCc3ccccc3)OCc3ccccc3)cc2c1O (stereo not shown) [CBK018405],93.8%
19,Fc1cc2c3c(c1)c1c(n3CCC2)CCNCC1 [CBK018406C],105%
20,NC1=C(N)OC(Oc2ccccc2C(F)(F)F)=NN1 [CBK018424],57.2%
21,Clc1ccc(-c2cc(CN3CCCCC3)no2)cc1Cl [CBK018435],102%
22,O=S(=O)(c1ccccc1)c1ccc(N2CCNCC2)cc1 [CBK018452],97.8%
23,CCCN1CCC(N2CCN(c3ccc([N+](=O)[O-])cc3)CC2)CC1 [CBK018459],96.3%
24,CCOC(=O)c1cnc(C(C)(C)C)nc1O [CBK018470],88.6%
